Eleven compounds from ChEMBL document CHEMBL5226339, “Strategies for Structural Modification of Small Molecules to Improve Blood-Brain Barrier Penetration: A Recent Perspective” (J Med Chem, 2021) can be followed below.

Series [1] is described as follows: Prodrug release in mouse assessed as nipecotic-acid concentration in brain at 15 mg/kg, iv after 30 mins. The format is ADME, organism-based. As to conditions: in vivo, 0.5 h.
A short description of series [2]: Apparent permeability in MDCKII-MDR1 cells. In kind it is ADME, cell-based, Canis lupus familiaris. As to conditions: dog, MDCK-MDR1.
Series [3] in a line: Inhibition of Toxoplasma gondii cathepsin L.
The next series has as its target Procathepsin L (Homo sapiens, UniProt P07711). Nature of the series: Inhibition of human cathepsin L.
Series [4] in a line: Efflux ratio of apparent permeability across basolateral to apical side over apical to basolateral side in MDCK-MDR1 cells. The format is ADME, cell-based, Canis lupus familiaris. As to conditions: dog.
The nature of series [5]: Ratio of AUC in Brain to plasma in mouse at 10 mg/kg, po. In kind it is ADME, organism-based. The settings on record: brain and plasma, read-out: Ratio AUC.
Series [6] is described as follows: Prodrug release in mouse brain assessed as AUC of ibuprofen after 60 mins. In kind it is ADME, tissue-based. Also noted: time 60 min. As to conditions: in vivo, 1 h.
Series [7] in a line: Prodrug release in mouse brain assessed as Cmax of ibuprofen after 60 mins. Also noted: time 60 min. The format is ADME, tissue-based. As to conditions: in vivo, 1 h.
The nature of series [8]: Prodrug release in mouse assessed as unbound brain to plasma concentration of ketoprofen at 30 mg/kg, po. In kind it is ADME, organism-based.
A short description of series [9]: Cmax in mouse brain at 48 mmol/kg, iv after 25 mins. Also noted: dose 48 mmol/Kg, time 25 min, route iv. The format is ADME, organism-based.
Series [10] can be described thus: AUC in mouse brain at 48 mmol/kg, iv after 25 mins. The format is ADME, organism-based. Also noted: time 25 min, dose 48 mmol/Kg, route iv. The settings on record: in vivo.
Series [11] can be described thus: Unbound brain-to-plasma concentration ratio in mouse at 30 mg/kg, po. In kind it is ADME, organism-based. The settings on record: brain and plasma, read-out: K(p,uu,brain).

Procathepsin L, sequence (P07711 whole entry): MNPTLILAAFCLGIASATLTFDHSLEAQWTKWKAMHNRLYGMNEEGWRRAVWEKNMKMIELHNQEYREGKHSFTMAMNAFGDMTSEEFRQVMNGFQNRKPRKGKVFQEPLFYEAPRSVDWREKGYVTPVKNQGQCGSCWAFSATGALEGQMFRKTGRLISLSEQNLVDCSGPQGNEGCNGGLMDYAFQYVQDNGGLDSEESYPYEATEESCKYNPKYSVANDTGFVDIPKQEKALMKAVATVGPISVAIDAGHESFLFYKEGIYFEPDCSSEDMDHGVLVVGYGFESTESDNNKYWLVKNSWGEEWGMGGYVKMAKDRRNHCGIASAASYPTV

For `N[C@@H](COC(=O)C1CCCNC1)C(=O)O` (some centres undefined), the Drug metabolism in series [1] is reported as 450 nmol/g.

`CC(c1ccc(O)c(O)c1)N(C)C.Cl` (centres undefined): the Papp in [2] was found to be 1.13 ×10⁻⁶ cm/s.

Regarding `CC(C)CCN(c1nc(C#N)nc(N2CCOCC2)n1)C(C)c1ccc(F)cc1` (centres undefined), the IC50 in [3] turned out to be 0.092 µM; at Procathepsin L it was 0.023 µM. The efflux ratio in [4] is 0.223. Moreover, the Kp in series [5] amounted to 0.52.

With `CC(C)Cc1ccc(C(C)C(=O)O[C@@H](CN(C)C)[C@H]2OC(=O)C(O)=C2O)cc1` (some centres undefined), the AUC in series [6] stood at 5870 µg·min/g. Also, the Cmax in [7] is 52.6 µg/g.

For `CC(c1cc(O)ccc1O)N(C)C.Cl` (centres undefined), the Papp in [2] turned out to be 26.3 ×10⁻⁶ cm/s.

With `N#Cc1nc(N2CCOCC2)nc(N(Cc2ccc(F)cc2)CC2CCCNC2)n1` (centres undefined), the IC50 stood at 0.181 µM in [3] and 1.2 µM against Procathepsin L. Moreover, the efflux ratio in [4] came out at 17.2. The Kp in series [5] is 0.15.

Consider `CC(c1cccc(O)c1O)N(C)C.Cl` (centres undefined), for which the Papp in [2] is 23.9 ×10⁻⁶ cm/s.

In the case of `C[C@H](C(=O)Nc1cccc(C[C@@H](N)C(=O)O)c1)c1cccc(C(=O)c2ccccc2)c1`, the “K(p,uu,brain)” value in series [8] was found to be 0.13.

Take `C[C@H](C(=O)Nc1ccc(C[C@@H](N)C(=O)O)cc1)c1cccc(C(=O)c2ccccc2)c1`: the “K(p,uu,brain)” value in series [8] was found to be 0.35.

`CC(C)Cc1ccc(C(C)C(=O)O)cc1` (centres undefined) [IBUPROFEN]: the Cmax in series [9] was 10.7 µg/g. This compound also gave an AUC in series [10] of 1860 µg·min/g.

As for `CC(C(=O)O)c1cccc(C(=O)c2ccccc2)c1` (centres undefined) [KETOPROFEN], in series [11], the Kp uu worked out at 0.01.

As usually defined, the Papp is the rate of passage across a membrane or cell layer, normalised by area and donor concentration. One may read the IC50 as the concentration that inhibits the measured activity by half. A high value points to lower potency. The term efflux ratio denotes the permeability from basolateral to apical divided by that in the opposite direction, in the common usage. By Cmax is commonly meant the highest concentration seen after dosing.
